pIC50: −log10 of the molar value. Structures can show the parent of a compound that is named as a salt.
Key:
EGFR = target: T1, EGFR (Homo sapiens, UniProt P00533); assay: EGFR substrate phosphorylation assay (HTRF); assay type: biochemical; conditions: Method (A): Enzyme Mix incubated with compound at 20° C. for 1 hr, reaction started by adding Substrate Mix
T1 construct: made in house; host or cells: baculovirus expression system
Summary of the method: (§1)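 Baculovirus-expressed kinase (0.8 nM EGFR or 10 nM ErbB2 in enzyme mix) with Peptide C 0.8 μM and ATP 20 μM (substrate-mix levels), MOPS pH 7.5, MnCl2; 90 min, 20 °C, HTRF anti-phosphotyrosine. Method A adds 1 h enzyme–compound preincubation; B none. pIC50, final compound 0.00027–47.6 μM.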

ErbB2 = target: T2, ErbB2 (Homo sapiens, UniProt P04626); assay: ErbB-2 substrate phosphorylation assay (HTRF); assay type: biochemical; conditions: Method (A): Enzyme Mix incubated with compound at 20° C. for 1 hr, reaction started by adding Substrate Mix
T2 construct: made in house; host or cells: baculovirus expression system
T2 sequence (P04626 23-1255): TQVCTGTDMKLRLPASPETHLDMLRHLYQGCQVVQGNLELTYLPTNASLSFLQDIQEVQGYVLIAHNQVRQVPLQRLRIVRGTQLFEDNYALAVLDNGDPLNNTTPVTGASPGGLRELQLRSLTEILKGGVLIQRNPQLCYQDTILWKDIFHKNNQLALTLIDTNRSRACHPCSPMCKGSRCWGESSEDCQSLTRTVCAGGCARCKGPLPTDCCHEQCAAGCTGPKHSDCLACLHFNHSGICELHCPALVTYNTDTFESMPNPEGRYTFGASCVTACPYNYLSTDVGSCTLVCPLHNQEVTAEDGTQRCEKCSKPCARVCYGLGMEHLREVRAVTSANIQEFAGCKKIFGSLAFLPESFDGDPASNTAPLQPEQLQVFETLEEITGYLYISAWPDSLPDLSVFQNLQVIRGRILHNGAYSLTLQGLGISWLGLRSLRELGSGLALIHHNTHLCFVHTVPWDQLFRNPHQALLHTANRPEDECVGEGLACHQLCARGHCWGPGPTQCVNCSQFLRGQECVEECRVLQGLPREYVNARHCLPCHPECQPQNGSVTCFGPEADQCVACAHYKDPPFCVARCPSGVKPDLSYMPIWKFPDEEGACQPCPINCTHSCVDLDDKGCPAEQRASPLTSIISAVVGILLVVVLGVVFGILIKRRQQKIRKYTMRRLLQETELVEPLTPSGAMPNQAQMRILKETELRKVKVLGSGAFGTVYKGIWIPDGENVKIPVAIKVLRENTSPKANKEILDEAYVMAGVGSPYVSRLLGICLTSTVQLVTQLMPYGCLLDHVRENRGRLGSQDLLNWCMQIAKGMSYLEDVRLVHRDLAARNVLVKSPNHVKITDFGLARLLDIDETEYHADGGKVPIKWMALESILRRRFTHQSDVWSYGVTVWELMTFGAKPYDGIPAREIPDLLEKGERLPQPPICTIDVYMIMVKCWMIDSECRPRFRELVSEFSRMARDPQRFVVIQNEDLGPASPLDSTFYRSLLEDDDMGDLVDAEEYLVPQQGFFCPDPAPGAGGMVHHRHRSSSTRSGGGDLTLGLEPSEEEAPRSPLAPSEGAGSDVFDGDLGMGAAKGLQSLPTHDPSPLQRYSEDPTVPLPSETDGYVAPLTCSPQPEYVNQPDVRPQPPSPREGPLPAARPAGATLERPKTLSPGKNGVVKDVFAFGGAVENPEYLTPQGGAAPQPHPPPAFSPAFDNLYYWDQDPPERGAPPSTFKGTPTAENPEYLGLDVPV
Summary of the method: as §1

HN5 tumor cells [1] = assay: Method B: CellTiter-Glo Growth Inhibition Assay, HN5; assay type: cell-based; conditions: Homo sapiens, 72 h, 3 days
Procedure: (§2) Human breast tumor cells (BT474) were cultured in RPMI, (Invitrogen, 22400) containing 10% fetal bovine serum (FBS). Human head and neck tumor cells (HN5) were cultured in low glucose DMEM (Invitrogen, 12320) containing 10% FBS. Human colon tumor cells (Colo205) were cultured in DMEM (Invitrogen, 10564) containing 10% FBS. Human melanoma cancer cells (SK-MEL-28) were incubated in DMEM (Invitrogen). All cell lines were maintained at 37° C. in a humidified 5% CO2, 95% air incubator. Cells were harvested using trypsin/EDTA, counted using a haemocytometer, and plated in 30 μL of the appropriate media described above, at the following densities, in a half-area, black-walled, 96-well tissue culture plate (Corning 3882): BT474 3,000 cells/well, HN5 500 cells/well, Colo205 3,000 cells/well, and SK-MEL-28 500 cells/well). The next day, compounds were diluted in DMEM containing […] gentamicin, from 10 mM stock solutions in DMSO. 30 μL/well of these dilutions were added to the 30 μL/well of media currently on the cell plates. Medium containing 0.6% DMSO was added to control wells. The final concentration of DMSO in all wells was 0.3%. Cells were incubated at 37° C., 5% CO2 for 3 days. Cell biomass was estimated using CellTiter-Glo® reagent (Promega G7571). Briefly, plates were removed from the incubator and allowed to equilibrate to rt for 30 minutes. 25-60 μL of CellTiter-Glo® reagent were added to each well of the treated cells and plates were shaken on an orbital plate shaker for 2 mins. Plates were incubated without shaking for 30 more mins and read in a luminometer with an integration time of 0.5 seconds per well. Percent inhibition of cell growth was calculated relative to vehicle-treated control wells. Concentration of compound that inhibits 50% of vehicle control cell growth (IC50) was interpolated using nonlinear regression (Levenberg-Marquardt) and the equation, y=V max*(1−(x/(K+x)))+Y2, where “K” was equal to the IC50.

BT474 tumor cells [2] = assay: Method B: CellTiter-Glo Growth Inhibition Assay, BT474; assay type: cell-based; conditions: Homo sapiens, BT-474, 72 h, 3 days
Procedure: as §2

Colo205 tumor cells [3] = assay: Method B: CellTiter-Glo Growth Inhibition Assay, Colo205; assay type: cell-based; conditions: Homo sapiens, COLO 205, 72 h, 3 days
Procedure: as §2

HN5 tumor cells [4] = assay: Method C: Cell Growth Inhibition Assay (CellTiter-Glo), HN5; assay type: cell-based; conditions: Homo sapiens, 72 h, 3 days, 4-parameter fit
Summary of the method: (§3)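 Growth inhibition is expressed as the concentration giving 50% inhibition relative to vehicle controls, derived from a 4-parameter fit. Tumor cells plated at 500 per well were exposed for 3 days to compound (0.2% DMSO) before total ATP was quantified by CellTiter-Glo.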

BT474 tumor cells [5] = assay: Method C: Cell Growth Inhibition Assay (CellTiter-Glo), BT474; assay type: cell-based; conditions: Homo sapiens, BT-474, 72 h, 3 days, 4-parameter fit
Colo205 tumor cells [6] = assay: Method C: Cell Growth Inhibition Assay (CellTiter-Glo), Colo205; assay type: cell-based; conditions: Homo sapiens, COLO 205, 72 h, 3 days, 4-parameter fit
Summary of the method: (§4)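 Plating at 500 cells/well is followed the next day by addition of compound as a 1:3 serial dilution series. After 3 days' incubation, CellTiter-Glo luminescence is read and IC50 is calculated versus DMSO wells.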

SK-MEL-28 tumor cells = assay: Method C: Cell Growth Inhibition Assay (CellTiter-Glo), SK-MEL-28; assay type: cell-based; conditions: Homo sapiens, SK-MEL-28, 72 h, 3 days, 4-parameter fit
Summary of the method: as §3

A375P F11s tumor cells = assay: Method C: Cell Growth Inhibition Assay (CellTiter-Glo), A375P F11s; assay type: cell-based; conditions: Homo sapiens, 72 h, 3 days, 4-parameter fit
Summary of the method: as §3

HT-29 tumor cells = assay: Method C: Cell Growth Inhibition Assay (CellTiter-Glo), HT-29; assay type: cell-based; conditions: Homo sapiens, HT-29, 72 h, 3 days, 4-parameter fit
Summary of the method: as §3

SK-MEL-3 tumor cells = assay: Method C: Cell Growth Inhibition Assay (CellTiter-Glo), SK-MEL-3; assay type: cell-based; conditions: Homo sapiens, SK-MEL3, 72 h, 3 days, 4-parameter fit
Summary of the method: as §4

T1 sequence (P00533 25-1210): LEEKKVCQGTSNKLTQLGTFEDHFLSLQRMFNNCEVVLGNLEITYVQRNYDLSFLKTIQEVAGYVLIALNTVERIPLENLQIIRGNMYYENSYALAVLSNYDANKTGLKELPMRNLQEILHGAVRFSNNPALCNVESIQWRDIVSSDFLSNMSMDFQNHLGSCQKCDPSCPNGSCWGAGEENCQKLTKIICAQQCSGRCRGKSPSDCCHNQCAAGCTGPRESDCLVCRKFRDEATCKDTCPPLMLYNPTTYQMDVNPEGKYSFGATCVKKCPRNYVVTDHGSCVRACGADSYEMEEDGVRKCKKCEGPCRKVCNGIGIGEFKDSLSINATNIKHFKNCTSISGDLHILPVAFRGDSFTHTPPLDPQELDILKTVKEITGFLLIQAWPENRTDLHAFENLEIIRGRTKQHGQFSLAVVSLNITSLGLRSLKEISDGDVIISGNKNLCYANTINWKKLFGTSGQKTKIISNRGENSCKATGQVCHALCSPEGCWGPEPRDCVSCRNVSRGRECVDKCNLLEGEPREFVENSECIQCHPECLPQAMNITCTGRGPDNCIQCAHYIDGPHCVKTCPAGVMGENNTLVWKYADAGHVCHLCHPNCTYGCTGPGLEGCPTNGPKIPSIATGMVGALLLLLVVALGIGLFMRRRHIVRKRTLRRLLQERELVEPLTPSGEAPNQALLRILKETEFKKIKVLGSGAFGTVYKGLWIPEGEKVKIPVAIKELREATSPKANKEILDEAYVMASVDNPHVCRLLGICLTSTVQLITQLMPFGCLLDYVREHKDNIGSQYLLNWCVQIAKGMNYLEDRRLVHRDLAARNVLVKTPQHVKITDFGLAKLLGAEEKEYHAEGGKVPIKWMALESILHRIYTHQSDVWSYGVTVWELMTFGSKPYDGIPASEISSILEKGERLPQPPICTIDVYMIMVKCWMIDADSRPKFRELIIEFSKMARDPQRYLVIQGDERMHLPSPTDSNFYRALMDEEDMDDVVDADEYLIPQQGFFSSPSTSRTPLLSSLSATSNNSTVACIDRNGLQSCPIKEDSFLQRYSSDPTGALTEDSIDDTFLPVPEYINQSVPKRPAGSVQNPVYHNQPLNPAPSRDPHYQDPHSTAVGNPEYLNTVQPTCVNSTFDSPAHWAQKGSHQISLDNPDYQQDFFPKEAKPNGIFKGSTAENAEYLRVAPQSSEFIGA

pIC50 (EGFR) | pIC50 (ErbB2) | pIC50 (HN5 tumor cells [1]) | pIC50 (BT474 tumor cells [2]) | pIC50 (Colo205 tumor cells [3]) | pIC50 (HN5 tumor cells [4]) | pIC50 (BT474 tumor cells [5]) | pIC50 (Colo205 tumor cells [6]) | pIC50 (SK-MEL-28 tumor cells) | pIC50 (A375P F11s tumor cells) | pIC50 (HT-29 tumor cells) | pIC50 (SK-MEL-3 tumor cells) | Compound
> 7.00 | 6.00 to 7.00 | 6.00 to 7.00 | 6.00 to 7.00 | < 6.00 | – | – | – | – | – | – | – | Nc1nc(-c2cccc(NC(=O)Cc3cccs3)c2)c(-c2ccnc(Nc3cccc(F)c3)n2)s1 [Example 64, N-[3-(2-Amino-5-{2-[(3-fluorophenyl)amino]-4-pyrimidinyl}-1,3-thiazol-4-yl)phenyl]-2-(2-thienyl)acetamide]
> 7.00 | > 7.00 | 6.00 to 7.00 | 6.00 to 7.00 | < 6.00 | – | – | – | – | – | – | – | O=C(Cc1cccs1)Nc1cccc(-c2ncsc2-c2ccnc(Nc3ccc4c(c3)OCC(=O)N4)n2)c1 [Example 85, N-[3-(5-{2-[(3-Oxo-3,4-dihydro-2H-1,4-benzoxazin-7-yl)amino]-4-pyrimidinyl}-1,3-thiazol-4-yl)phenyl]-2-(2-thienyl)acetamide hydrochloride]
6.00 to 7.00 | < 6.00 | < 6.00 | < 6.00 | < 6.00 | – | – | – | – | – | – | – | Cc1nc(-c2cccc(NC(=O)Cc3cccs3)c2)c(-c2ccnc(Nc3cccc(F)c3)n2)s1 [Example 138, N-[3-(5-{2-[(3-Fluorophenyl)amino]-4-pyrimidinyl}-2-methyl-1,3-thiazol-4-yl)phenyl]-2-(2-thienyl)acetamide]
> 7.00 | > 7.00 | 6.00 to 7.00 | > 7.00 | 6.00 to 7.00 | – | – | – | – | – | – | – | CN(C)C1Cc2ccc(Nc3nccc(-c4scnc4-c4cccc(NC(=O)Cc5cccs5)c4)n3)cc2C1 (centres unmarked) [Example 83, N-{3-[5-(2-{[2-(Dimethylamino)-2,3-dihydro-1H-inden-5-yl]amino}-4-pyrimidinyl)-1,3-thiazol-4-yl]phenyl}-2-(2-thienyl)acetamide]
> 7.00 | > 7.00 | 6.00 to 7.00 | 6.00 to 7.00 | 6.00 to 7.00 | – | – | – | – | – | – | – | CCN(CC)CCOc1cccc(Nc2nccc(-c3scnc3-c3cccc(NC(=O)Cc4cccs4)c3)n2)c1 [Example 82, N-[3-(5-{2-[(3-{[2-(Diethylamino)ethyl]oxy}phenyl)amino]-4-pyrimidinyl}-1,3-thiazol-4-yl)phenyl]-2-(2-thienyl)acetamide]
> 7.00 | > 7.00 | > 7.00 | > 7.00 | < 6.00 | – | – | – | – | – | – | – | Nc1nc(-c2cccc(NC(=O)c3c(F)cccc3F)c2)c(-c2ccnc(Nc3cccc(F)c3)n2)s1 [Example 7]
> 7.00 | > 7.00 | 6.00 to 7.00 | 6.00 to 7.00 | 6.00 to 7.00 | – | – | – | – | – | – | – | CN(C)Cc1cccc(Nc2nccc(-c3scnc3-c3cccc(NC(=O)Cc4cccs4)c3)n2)c1 [Example 81]
> 7.00 | > 7.00 | > 7.00 | > 7.00 | < 6.00 | – | – | – | – | – | – | – | Cc1nc(-c2cccc(NC(=O)c3c(F)cccc3F)c2)c(-c2ccnc(Nc3cccc(F)c3)n2)s1 [Example 101, 2,6-Difluoro-N-[3-(5-{2-[(3-fluorophenyl)amino]-4-pyrimidinyl}-2-methyl-1,3-thiazol-4-yl)phenyl]benzamide]

Second part, the compound before the results:

Compound | pIC50 (EGFR) | pIC50 (ErbB2) | pIC50 (HN5 tumor cells [1]) | pIC50 (BT474 tumor cells [2]) | pIC50 (Colo205 tumor cells [3]) | pIC50 (HN5 tumor cells [4]) | pIC50 (BT474 tumor cells [5]) | pIC50 (Colo205 tumor cells [6]) | pIC50 (SK-MEL-28 tumor cells) | pIC50 (A375P F11s tumor cells) | pIC50 (HT-29 tumor cells) | pIC50 (SK-MEL-3 tumor cells)
COc1ccc(Nc2nccc(-c3sc(N)nc3-c3cccc(NC(=O)c4c(F)cccc4F)c3)n2)cc1N(C)C [Example 19, N-{3-[2-Amino-5-(2-{[3-(dimethylamino)-4-(methyloxy)phenyl]amino}-4-pyrimidinyl)-1,3-thiazol-4-yl]phenyl}-2,6-difluorobenzamide] | > 7.00 | > 7.00 | > 7.00 | > 7.00 | 6.00 to 7.00 | – | – | – | – | – | – | –
O=C(Nc1cccc(-c2ncsc2-c2ccnc(Nc3ccc4c(c3)CNCC4)n2)c1)c1c(F)cccc1F [Example 91, 2,6-Difluoro-N-(3-{5-[2-(1,2,3,4-tetrahydro-7-isoquinolinylamino)-4-pyrimidinyl]-1,3-thiazol-4-yl}phenyl)benzamide] | > 7.00 | > 7.00 | > 7.00 | > 7.00 | 6.00 to 7.00 | – | – | – | – | – | – | –
Nc1nc(-c2cccc(NC(=O)c3c(F)cccc3F)c2)c(-c2ccnc(Nc3ccc4c(c3)OCC(=O)N4)n2)s1 [Example 9, hydrochloride] | > 7.00 | > 7.00 | > 7.00 | > 7.00 | < 6.00 | – | – | – | – | – | – | –
O=C(Nc1cccc(-c2nc(NCCCN3CCOCC3)sc2-c2ccnc(Nc3cccc(F)c3)n2)c1)c1c(F)cccc1F [Example 30, 2,6-Difluoro-N-[3-(5-{2-[(3-fluorophenyl)amino]-4-pyrimidinyl}-2-{[3-(4-morpholinyl)propyl]amino}-1,3-thiazol-4-yl)phenyl]benzamide] | > 7.00 | > 7.00 | 6.00 to 7.00 | 6.00 to 7.00 | < 6.00 | – | – | – | – | – | – | –
CCN(CC)CCOc1cccc(Nc2nccc(-c3scnc3-c3cccc(NC(=O)c4c(F)cccc4F)c3)n2)c1 [Example 92, N-[3-(5-{2-[(3-{[2-(Diethylamino)ethyl]oxy}phenyl)amino]-4-pyrimidinyl}-1,3-thiazol-4-yl)phenyl]-2,6-difluorobenzamide-formic acid] | > 7.00 | > 7.00 | > 7.00 | > 7.00 | 6.00 to 7.00 | – | – | – | – | – | – | –
Nc1nc(-c2cccc(NC(=O)c3c(F)cccc3F)c2)c(-c2ccnc(Nc3ccc4c(c3)NC(=O)CO4)n2)s1 [Example 20, N-[3-(2-Amino-5-{2-[(3-oxo-3,4-dihydro-2H-1,4-benzoxaziN-6-yl)amino]-4-pyrimidinyl}-1,3-thiazol-4-yl)phenyl]-2,6-difluorobenzamide] | > 7.00 | > 7.00 | > 7.00 | > 7.00 | < 6.00 | – | – | – | – | – | – | –
CN(C)CCOc1ccc(Nc2nccc(-c3scnc3-c3cccc(NC(=O)c4c(F)cccc4F)c3)n2)cc1Cl [Example 89] | > 7.00 | > 7.00 | > 7.00 | > 7.00 | 6.00 to 7.00 | – | – | – | – | – | – | –
O=C1COc2cc(Nc3nccc(-c4scnc4-c4cccc(NC(=O)c5cc(F)ccc5F)c4)n3)ccc2N1 [Example 98, 2,5-Difluoro-N-[3-(5-{2-[(3-oxo-3,4-dihydro-2H-1,4-benzoxaziN-7-yl)amino]-4-pyrimidinyl}-1,3-thiazol-4-yl)phenyl]benzamide hydrochloride] | > 7.00 | > 7.00 | > 7.00 | > 7.00 | < 6.00 | – | – | – | – | – | – | –
Cc1nc(-c2cccc(NC(=O)c3cc(F)ccc3F)c2)c(-c2ccnc(Nc3ccc(OCCN(C)C)c(F)c3)n2)s1 [Example 128, N-[3-(5-{2-[(4-{[2-(Dimethylamino)ethyl]oxy}-3-fluorophenyl)amino]-4-pyrimidinyl}-2-methyl-1,3-thiazol-4-yl)phenyl]-2,5-difluorobenzamide] | > 7.00 | > 7.00 | – | – | – | 6.00 to 7.00 | 6.00 to 7.00 | < 6.00 | < 6.00 | < 6.00 | 6.00 to 7.00 | < 6.00
COc1ccc(Nc2nccc(-c3sc(N)nc3-c3cccc(NC(=O)c4c(F)cccc4F)c3)n2)cc1OCCN(C)C [Example 2] | > 7.00 | > 7.00 | – | – | – | > 7.00 | > 7.00 | > 7.00 | 6.00 to 7.00 | 6.00 to 7.00 | 6.00 to 7.00 | 6.00 to 7.00

— patent US20110098296A1, “Thiazole And Oxazole Kinase Inhibitors” (priority 2007, published 2011)
